# Laboratory results reported in PubChem BioAssay (NCI).
#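 Interpolation was linear, between the two tested concentrations surrounding the appropriate level; five concentrations were tested over 48 hours in 96-well plates. GI50 = concentration required for 50% inhibition of growth. TGI denotes the concentration required for complete inhibition of growth.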
# Columns and labels:
# Test in all cases: NCI anticancer screen, dose series, 48 h
# DU-145 prostate = tested on: DU-145 prostate
# HCC-2998 colon = tested on: HCC-2998 colon
# NCI/ADR-RES ovarian = tested on: NCI/ADR-RES ovarian
# 786-0 renal = tested on: 786-0 renal
# CAKI-1 renal = tested on: CAKI-1 renal
# CCRF-CEM leukemia = tested on: CCRF-CEM leukemia
# HCT-116 colon = tested on: HCT-116 colon
# HCT-15 colon = tested on: HCT-15 colon
# HL-60(TB) leukemia = tested on: HL-60(TB) leukemia
# KM12 colon = tested on: KM12 colon
# M14 melanoma = tested on: M14 melanoma
# MDA-MB-435 = tested on: MDA-MB-435
# NCI-H226 lung = tested on: NCI-H226 lung
# NCI-H23 lung = tested on: NCI-H23 lung
# NCI-H460 lung = tested on: NCI-H460 lung
# NCI-H522 lung = tested on: NCI-H522 lung
# OVCAR-4 ovarian = tested on: OVCAR-4 ovarian
# OVCAR-8 ovarian = tested on: OVCAR-8 ovarian
# PC-3 prostate = tested on: PC-3 prostate
# RPMI-8226 leukemia = tested on: RPMI-8226 leukemia
# SF-268 CNS = tested on: SF-268 CNS
# SN12C renal = tested on: SN12C renal
# SNB-19 CNS = tested on: SNB-19 CNS
# SNB-75 CNS = tested on: SNB-75 CNS
# SR leukemia = tested on: SR leukemia
# SW-620 colon = tested on: SW-620 colon
# T-47D breast = tested on: T-47D breast
# U251 CNS = tested on: U251 CNS
# HS 578T breast = tested on: HS 578T breast
# K-562 leukemia = tested on: K-562 leukemia
# MALME-3M melanoma = tested on: MALME-3M melanoma
# MCF7 breast = tested on: MCF7 breast
# MDA-MB-231 breast = tested on: MDA-MB-231 breast
# MOLT-4 leukemia = tested on: MOLT-4 leukemia
# OVCAR-3 ovarian = tested on: OVCAR-3 ovarian
# OVCAR-5 ovarian = tested on: OVCAR-5 ovarian
# SF-539 CNS = tested on: SF-539 CNS
# TK-10 renal = tested on: TK-10 renal
# A498 renal = tested on: A498 renal
# BT-549 breast = tested on: BT-549 breast
# EKVX NSCLC = tested on: EKVX NSCLC
# HOP-62 NSCLC = tested on: HOP-62 NSCLC
# HT29 colon = tested on: HT29 colon
# IGROV1 ovarian = tested on: IGROV1 ovarian
# LOX IMVI melanoma = tested on: LOX IMVI melanoma
# SK-MEL-2 melanoma = tested on: SK-MEL-2 melanoma
# SK-MEL-28 melanoma = tested on: SK-MEL-28 melanoma
# SK-MEL-5 melanoma = tested on: SK-MEL-5 melanoma
# SK-OV-3 ovarian = tested on: SK-OV-3 ovarian
# UACC-257 melanoma = tested on: UACC-257 melanoma
# UACC-62 melanoma = tested on: UACC-62 melanoma
smiles,measurement,setting,value
C[C@H](C(=O)N[C@@H](Cc1ccc(-c2ccccc2)cc1)C(=O)NC1CC(C)(C)NC(C)(C)C1)c1ccc(-c2ccccc2)c(F)c1,GI50,DU-145 prostate,0.377 µM
same,TGI,DU-145 prostate,1.54 µM
same,GI50,HCC-2998 colon,0.813 µM
same,TGI,HCC-2998 colon,> 100 µM
same,GI50,NCI/ADR-RES ovarian,1.88 µM
same,TGI,NCI/ADR-RES ovarian,4.47 µM
COc1ncc(-c2ccc3ncnc(Nc4cccc(Cl)c4)c3c2)cc1NS(=O)(=O)CCN1CCOCC1,GI50,786-0 renal,0.298 µM
same,TGI,786-0 renal,> 100 µM
same,GI50,CAKI-1 renal,0.345 µM
same,TGI,CAKI-1 renal,> 100 µM
same,GI50,CCRF-CEM leukemia,0.799 µM
same,TGI,CCRF-CEM leukemia,> 100 µM
same,GI50,DU-145 prostate,0.297 µM
same,TGI,DU-145 prostate,> 100 µM
same,GI50,HCT-116 colon,1.49 µM
same,TGI,HCT-116 colon,> 100 µM
same,GI50,HCT-15 colon,0.448 µM
same,TGI,HCT-15 colon,> 100 µM
same,GI50,HL-60(TB) leukemia,0.38 µM
same,TGI,HL-60(TB) leukemia,> 100 µM
same,GI50,KM12 colon,1.81 µM
same,TGI,KM12 colon,> 100 µM
same,GI50,M14 melanoma,0.755 µM
same,TGI,M14 melanoma,> 100 µM
same,GI50,MDA-MB-435,0.534 µM
same,TGI,MDA-MB-435,> 100 µM
same,GI50,NCI-H226 lung,0.659 µM
same,TGI,NCI-H226 lung,> 100 µM
same,GI50,NCI-H23 lung,0.768 µM
same,TGI,NCI-H23 lung,> 100 µM
same,GI50,NCI-H460 lung,0.393 µM
same,TGI,NCI-H460 lung,> 100 µM
same,GI50,NCI-H522 lung,0.402 µM
same,TGI,NCI-H522 lung,8.6 µM
same,GI50,OVCAR-4 ovarian,1.14 µM
same,TGI,OVCAR-4 ovarian,> 100 µM
same,GI50,OVCAR-8 ovarian,0.7 µM
same,TGI,OVCAR-8 ovarian,> 100 µM
same,GI50,PC-3 prostate,0.326 µM
same,TGI,PC-3 prostate,> 100 µM
same,GI50,RPMI-8226 leukemia,1.23 µM
same,TGI,RPMI-8226 leukemia,> 100 µM
same,GI50,SF-268 CNS,0.382 µM
same,TGI,SF-268 CNS,> 100 µM
same,GI50,SN12C renal,0.293 µM
same,TGI,SN12C renal,> 100 µM
same,GI50,SNB-19 CNS,0.945 µM
same,TGI,SNB-19 CNS,> 100 µM
same,GI50,SNB-75 CNS,< 0.01 µM
same,TGI,SNB-75 CNS,0.739 µM
same,GI50,SR leukemia,0.653 µM
same,TGI,SR leukemia,> 100 µM
same,GI50,SW-620 colon,1.25 µM
same,TGI,SW-620 colon,> 100 µM
same,GI50,T-47D breast,< 0.01 µM
same,TGI,T-47D breast,0.6 µM
same,GI50,U251 CNS,0.824 µM
same,TGI,U251 CNS,> 100 µM
COc1cc(/C=C2\CCCC3=C2NC(C)=NC3c2cc(OC)c(OC)c(OC)c2)cc(OC)c1OC (stereo not drawn),GI50,CAKI-1 renal,2.61 µM
same,TGI,CAKI-1 renal,22.9 µM
same,GI50,CCRF-CEM leukemia,0.838 µM
same,TGI,CCRF-CEM leukemia,> 100 µM
same,GI50,DU-145 prostate,1.53 µM
same,TGI,DU-145 prostate,> 100 µM
same,GI50,HCT-116 colon,0.46 µM
same,TGI,HCT-116 colon,1.76 µM
same,GI50,HCT-15 colon,1.03 µM
same,TGI,HCT-15 colon,> 100 µM
same,GI50,HS 578T breast,5.16 µM
same,TGI,HS 578T breast,> 100 µM
same,GI50,K-562 leukemia,0.917 µM
same,TGI,K-562 leukemia,> 100 µM
same,GI50,MALME-3M melanoma,1.6 µM
same,TGI,MALME-3M melanoma,4.76 µM
same,GI50,MCF7 breast,1.45 µM
same,TGI,MCF7 breast,> 100 µM
same,GI50,MDA-MB-231 breast,3.01 µM
same,TGI,MDA-MB-231 breast,> 100 µM
same,GI50,MOLT-4 leukemia,1.93 µM
same,TGI,MOLT-4 leukemia,> 100 µM
same,GI50,NCI/ADR-RES ovarian,0.505 µM
same,TGI,NCI/ADR-RES ovarian,> 100 µM
same,GI50,OVCAR-3 ovarian,2.65 µM
same,TGI,OVCAR-3 ovarian,> 100 µM
same,GI50,OVCAR-4 ovarian,2.39 µM
same,TGI,OVCAR-4 ovarian,> 100 µM
same,GI50,OVCAR-5 ovarian,3.54 µM
same,TGI,OVCAR-5 ovarian,> 100 µM
same,GI50,OVCAR-8 ovarian,0.372 µM
same,TGI,OVCAR-8 ovarian,> 100 µM
same,GI50,PC-3 prostate,2.05 µM
same,TGI,PC-3 prostate,> 100 µM
same,GI50,RPMI-8226 leukemia,0.536 µM
same,TGI,RPMI-8226 leukemia,4.67 µM
same,GI50,SF-268 CNS,1.88 µM
same,TGI,SF-268 CNS,> 100 µM
same,GI50,SF-539 CNS,1.55 µM
same,TGI,SF-539 CNS,> 100 µM
same,GI50,SNB-75 CNS,> 100 µM
same,TGI,SNB-75 CNS,> 100 µM
same,GI50,SR leukemia,0.436 µM
same,TGI,SR leukemia,7.66 µM
same,GI50,SW-620 colon,1.45 µM
same,TGI,SW-620 colon,> 100 µM
same,GI50,T-47D breast,3.25 µM
same,TGI,T-47D breast,> 100 µM
same,GI50,TK-10 renal,4.33 µM
same,TGI,TK-10 renal,> 100 µM
CC(=O)Nc1ccc2[nH]c(C(=O)N3CC(CCl)c4c3cc(N)c3ccccc43)cc2c1 (stereo not drawn),TGI,A498 renal,0.0554 µM
same,TGI,BT-549 breast,0.335 µM
same,TGI,CAKI-1 renal,< 0.01 µM
same,TGI,EKVX NSCLC,0.0851 µM
same,TGI,HCC-2998 colon,< 0.01 µM
same,TGI,HCT-116 colon,< 0.01 µM
same,TGI,HCT-15 colon,2.16 µM
same,TGI,HOP-62 NSCLC,< 0.0262 µM
same,TGI,HS 578T breast,< 0.01 µM
same,TGI,HT29 colon,< 0.0309 µM
same,TGI,IGROV1 ovarian,> 100 µM
same,TGI,K-562 leukemia,> 100 µM
same,TGI,KM12 colon,3.48 µM
same,TGI,LOX IMVI melanoma,< 0.0255 µM
same,TGI,MCF7 breast,2.01 µM
same,TGI,MDA-MB-435,0.0767 µM
same,TGI,MOLT-4 leukemia,< 0.0446 µM
same,TGI,NCI-H226 lung,< 0.0238 µM
same,TGI,NCI-H460 lung,11.6 µM
same,TGI,NCI-H522 lung,< 0.01 µM
same,TGI,NCI/ADR-RES ovarian,0.0534 µM
same,TGI,OVCAR-3 ovarian,12.6 µM
same,TGI,OVCAR-5 ovarian,1.08 µM
same,TGI,OVCAR-8 ovarian,< 0.027 µM
same,TGI,SF-268 CNS,< 0.01 µM
same,TGI,SK-MEL-2 melanoma,< 0.0192 µM
same,TGI,SK-MEL-28 melanoma,0.0761 µM
same,TGI,SK-MEL-5 melanoma,0.0267 µM
same,TGI,SK-OV-3 ovarian,2.18 µM
same,TGI,SN12C renal,0.0751 µM
same,TGI,SNB-19 CNS,0.259 µM
same,TGI,SR leukemia,0.0298 µM
same,TGI,SW-620 colon,> 100 µM
same,TGI,UACC-257 melanoma,< 0.01 µM
same,TGI,UACC-62 melanoma,< 0.0157 µM
